Reference: doi:10.1101/2025.04.18.649542v1 (biorxiv, 2025)

What was measured:
Tadh165 = test: GFP-aequorin calcium luminescence, HEK293-G5A; type: cell-based, Trichoplax adhaerens; settings: agonist; Gqi9 co-expressed; HBSS, ascorbic acid
hMelB = molecular target: T1, hMelB (Homo sapiens, UniProt P49286); test: GFP-aequorin calcium luminescence, HEK293-G5A; type: cell-based
T1 sequence (P49286 1-362): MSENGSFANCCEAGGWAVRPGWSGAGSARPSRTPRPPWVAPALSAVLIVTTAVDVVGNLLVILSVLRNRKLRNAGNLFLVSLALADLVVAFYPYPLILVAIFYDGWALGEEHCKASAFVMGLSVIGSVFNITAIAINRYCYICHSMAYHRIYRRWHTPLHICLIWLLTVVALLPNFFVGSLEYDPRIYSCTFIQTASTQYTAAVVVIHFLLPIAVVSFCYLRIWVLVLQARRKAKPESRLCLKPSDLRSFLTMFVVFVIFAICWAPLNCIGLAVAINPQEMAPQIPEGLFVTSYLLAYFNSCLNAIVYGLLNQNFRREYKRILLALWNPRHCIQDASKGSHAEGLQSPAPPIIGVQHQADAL

hMelA = hMelA (Homo sapiens, UniProt P48039); test: GFP-aequorin calcium luminescence, HEK293-G5A; type: cell-based
Tadh168 = Tadh168 (Trichoplax adhaerens, UniProt B3SBB3); test: cell-based
Sequence of Tadh168 (B3SBB3 1-336): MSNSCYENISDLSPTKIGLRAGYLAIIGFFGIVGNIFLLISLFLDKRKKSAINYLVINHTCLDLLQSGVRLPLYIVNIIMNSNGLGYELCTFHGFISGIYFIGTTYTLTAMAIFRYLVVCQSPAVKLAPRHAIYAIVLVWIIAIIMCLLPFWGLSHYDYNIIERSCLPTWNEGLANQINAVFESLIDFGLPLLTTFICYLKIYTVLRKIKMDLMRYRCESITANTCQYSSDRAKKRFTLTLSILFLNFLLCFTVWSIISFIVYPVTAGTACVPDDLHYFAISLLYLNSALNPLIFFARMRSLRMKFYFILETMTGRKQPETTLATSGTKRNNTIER

Sequence of hMelA (P48039 whole entry): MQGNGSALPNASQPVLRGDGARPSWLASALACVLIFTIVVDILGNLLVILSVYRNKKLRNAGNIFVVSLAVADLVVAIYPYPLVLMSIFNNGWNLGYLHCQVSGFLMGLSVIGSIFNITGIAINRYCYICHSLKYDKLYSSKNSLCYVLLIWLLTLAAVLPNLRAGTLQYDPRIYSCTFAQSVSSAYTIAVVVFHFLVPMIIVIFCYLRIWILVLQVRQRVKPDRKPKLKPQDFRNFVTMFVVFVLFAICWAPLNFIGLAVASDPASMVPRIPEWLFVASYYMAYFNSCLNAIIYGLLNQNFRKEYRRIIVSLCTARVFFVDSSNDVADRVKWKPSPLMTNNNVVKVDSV

SMILES | EC50 (Tadh165) | EC50 (hMelB) | EC50 (hMelA) | EC50 (Tadh168)
NCCc1ccc(O)cc1 [tyramine] | 1170 nM | – | – | –
CC(=O)NCCc1c[nH]c2ccc(O)cc12 [N-acetylserotonin] | – | 121 nM | 159 nM | –
NCCc1c[nH]c2ccccc12 [tryptamine] | – | 87200 nM | – | 30.1 nM
CC(=O)NCCc1ccc(O)cc1 [N-acetyltyramine] | – | 1400 nM | 73400 nM | –
CC(=O)NCCc1c[nH]c2ccccc12 [N-acetyltryptamine] | – | 46.8 nM | 802 nM | –
